From US20050054680A1, “Agonists and antagonists of 5h3-like receptors of invertebrates as pesticides” (priority 2001, published 2005)
Entries after “also recorded” stand apart in the source; their conditions may differ. Read-outs that look alike come from different tables or passages of the source.

Assays:
[1] = system: larvae of the lepidopteran Helicoverpa armigera; details: in vivo; cited from earlier work
[2] = system: aphid Myzus persicae; details: in vivo; cited from earlier work
[3] = system: C. elegans of the Bristol N2 strain; assay: Automated feeding assay (bead ingestion, pharyngeal pumping); format: in vivo, Caenorhabditis elegans; details: for Effect of 0.325 mM compound on serotonin-stimulated (0.325 mM) bead ingestion: 0.325 mM compound plus 0.325 mM serotonin; for Effect of 0.325 mM compound on bead ingestion: no added serotonin; for IC50: Caenorhabditis elegans
From the text: An automated screening assay has been developed and described in the present Applicants' co-pending International patent application No. PCT/AU00/01476 (WO 01/40500). Using the screening assay, twenty novel tropanyl ester compounds as well as tropanyl dichlorobenzoate were screened for nematicidal activity.
The assay used was essentially that described in WO 01/40500 with minor modifications. The protocol was as follows:
(1.) Plate Culture. C. elegans of the Bristol N2 strain (Brenner, 1974) were cultured at room temperature on HMS174 E. coli bacteria (Campbell et al., 1978) spread on a 150 mm diameter petri dish containing enhanced NGM 1.7% (w/v) (Avery and Horvitz, 1990) agar until a good population of adult nematodes was present, but food reserves had not been exhausted.
(2.) The nematodes were collected by washing each plate with 10 mL and then 5 mL of M9 buffer plate and filtering over a 20 μm nylon mesh (Nytal—Catalogue no. BCNY-HDO02-20) to retain adult nematodes. The nematodes from 7-8 of these 150 mm plates were collected together and placed on a 63 μm mesh filter (Nytal—product code PA-25-43) and washed with 200-250 mL of M9 buffer or MilliQ water. This procedure allows the passage of nematodes whilst retaining larger debris. Finally the nematodes were collected over a 20 μm mesh.
(3.) Adult nematodes were collected from the mesh using a pasteur pipette and allowed to settle in an eppendorf tube at 1×g for 10 minutes. This packed volume was used to calculate quantities of nematodes for experiments and assays, although nematodes were resuspended in 2-10 volumes of M9 buffer for transfer. Quantitative transfers of nematodes were performed using a Gilson Pipetman P200 or equivalent and a yellow tip with 5 mm cut off the sharp end.
(4.) Assays were performed in 24 well tissue-lture clusters (Nunc multidish). The final assay volume was 230 μL comprising the following sequential additions: • (i) M9 buffer—sufficient to bring the final volume to 230 μL • ([…]) Any other pharmacological agents—≦1.5 μL of drug in DMSO (or water) • (iv) Nematodes—150 μL of a 10% (v/v) stock in M9 • (v) Fluorescent beads—23 μL of a 1% w/v solution in M9.
Where serotonin or other pharmacological agents were omitted, the volume was adjusted with M9 buffer. Control experiments included 1.5 μL of DMSO except in the case of ondansetron, which was added from an aqueous stock.
The fluorescent beads were 1.30 μm uniformly dyed microsphere beads with a hydrophilic surface-coating. The fluorescence excitation maximum was 420 nm and the emission maximum was 485 nm (catalogue code FC04F, carboxylate-modified polystyrene/polyvinyl copolymer, manufactured and supplied by Bangs Laboratories, Inc. 9025 Technology Drive, Fishers, INDIANA 46038-2886, USA).
(5.) The nematodes were incubated for 60 minutes after the addition of the fluorescent beads at room temperature (≈21° C.) without shaking. The assay was terminated by the addition of 20 μL of 100 mM sodium azide.
(6.) Two aliquots of 100 μl each were transferred from each well of the 24 well cluster to a pair of wells in a pre-blocked mesh-bottomed plate (see below for details of the mesh-bottomed plate) and the buffer/bead suspension was immediately aspirated away through the filter mesh using a Millipore Multiscreen vacuum manifold.
(7.) A total of eight washing steps were performed. Each of the first five washes used 200 μL of 1%(w/v) sodium lauryl sulphate (SDS—Sigma) in M9 buffer. The third and fifth washes involved pipetting the solution up and down in the wells of the plate ten times each wash. The SDS washes were followed by three washes with 200 μL of M9 buffer only. At the end of each washing step, solutions were aspirated away through the mesh using a Millipore Multiscreen vacuum manifold. […]

[4] = system: nematode C. elegans; details: cited from earlier work
[5] = system: insects; details: in vivo; cited from earlier work
[6] = system: C. elegans; details: cited from earlier work
[7] = listed as tropanyl dichlorobenzoate

**Q.** For `CN1[C@@H]2CC[C@H]1CC(OC(=O)c1cc(Cl)cc(Cl)c1)C2` (stereo partly shown) [MDL 72222, 3,5-dichlorobenzoic acid tropan-3-yl ester], which “Effect on larval growth rates” value [1] is on record?
**A.** reduced growth rates

**Q.** What about the “Detrimental effects on Myzus persicae” value [2] of the same compound?
**A.** dose-dependent detrimental effects, including lethality

**Q.** And the “Effect of 0.325 mM compound on serotonin-stimulated (0.325 mM) bead ingestion” value [3]?
**A.** reverses strongly

**Q.** What about the “Effect of 0.325 mM compound on serotonin-stimulated (0.325 mM) bead ingestion” value [3, 7] of the same compound?
**A.** strongly reversed

**Q.** And the “Effect of 0.325 mM compound on bead ingestion” value [3]?
**A.** inhibits

**Q.** What about the “Effect of 0.325 mM compound on bead ingestion” value [3, 7] of the same compound?
**A.** reduced

**Q.** What about the IC50 ([3]; in the absence of added serotonin, estimated (FIG. 2), read-out: IC50 (dose that depressed the basal bead ingestion rate by 50%)) of the same compound?
**A.** 11 µM

**Q.** And the IC50 ([3]; in the presence of 1 mM serotonin, estimated from log dose response curves (FIG. 2), read-out: IC50 (inhibitory concentration 50%) for bead ingestion)?
**A.** 40 µM

**Q.** What about the “Effect on pharyngeal pumping” value ([4]; as summarised in the background, no concentration given) of the same compound?
**A.** profoundly inhibited

**Q.** What about the “Effect on serotonin-stimulated rate of pharyngeal pumping” value ([4]; drug 0.325 mM, serotonin 0.325 mM) of the same compound?
**A.** antagonised the stimulatory effect

**Q.** And the “Detrimental effects in insects” value [5]?
**A.** significant detrimental effects, including some mortality

**Q.** What about the “Detrimental effects on C. elegans” value ([6]; in vivo, listed as tropanyl dichlorobenzoate) of the same compound?
**A.** dose-dependent mortality and other detrimental effects; also recorded: dose-dependent detrimental effects, including lethality

**Q.** And the “Lowest effective concentration in the chronic toxicity assay” value ([6]; reported previously in WO 01/61000)?
**A.** ~11 µM
